In publication PMC9478340, “Inhibitors targeting the autophosphorylation of serine/threonine kinase of Streptococcus suis show potent antimicrobial activity” (Frontiers in Microbiology, 2022):

Biological target: T1, serine/threonine kinase (ssSTK) (Streptococcus suis, UniProt A0A0H3MXV7)
T1 construct: gene SSUBM407_0373; 6 × his-tagged kinase domain of ssSTK (ssSTK^KD, pET28a-stk^KD) is the wild-type expression construct described; the assay text says 'purified ssSTK'
Experiment: Kinase-Glo ATP consumption assay of autophosphorylation; confirmed by anti-P-Thr western blot
Assay type: biochemical

T1 sequence (A0A0H3MXV7 entry or part of it): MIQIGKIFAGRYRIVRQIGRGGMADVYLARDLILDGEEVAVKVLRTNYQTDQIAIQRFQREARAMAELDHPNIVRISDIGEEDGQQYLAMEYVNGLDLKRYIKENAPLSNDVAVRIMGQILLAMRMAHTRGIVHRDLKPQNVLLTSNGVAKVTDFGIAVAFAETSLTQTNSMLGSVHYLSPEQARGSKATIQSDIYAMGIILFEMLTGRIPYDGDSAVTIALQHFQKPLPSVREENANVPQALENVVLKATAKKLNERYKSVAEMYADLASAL

Row | Compound | IC50 [µM]
1 | c1cc(Nc2cc(C3CC3)[nH]n2)nc(Nc2ccc3[nH]cnc3c2)n1 [APY29] | 10.1
2 | O=C(Nc1c[nH]nc1-c1nc2cc(CN3CCOCC3)ccc2[nH]1)NC1CC1 [AT9283] | 10.6
3 | COC(=O)[C@@]1(O)C[C@H]2O[C@]1(C)n1c3ccccc3c3c4c(c5c6ccccc6n2c5c31)C(=O)NC4 [K252a] | 13.8
4 | CN[C@@H]1C[C@H]2O[C@@](C)([C@@H]1OC)n1c3ccccc3c3c4c(c5c6ccccc6n2c5c31)C(=O)NC4 [Staurosporine] | 8.97
